According to patent publication US10316064B2, “Teicoplanin analogs and uses thereof” (Academia Sinica, priority 2014, dated 2019):
Converted amounts (≈) assume the structure as drawn. Where two headings read alike, the source gives them in different places.

Experiments:
Orf11*/Dbv8 = test: Isothermal titration calorimetry (ITC) analysis of substrate-enzyme affinity; assay type: binding; details: ligand injected into protein solution (0.1 mM)
Procedure: (§1) ITC thermograms of Orf11* versus CoA, acetyl-CoA, butyryl-CoA, hexanoyl-CoA, octanoyl-CoA, decanoyl-CoA, lauroyl-CoA, myristoyl-CoA, palmitoyl-CoA, stearoyl-CoA or Tei-pseudoaglycone. Each exothermic heat pulse corresponds to an injection of 2 μl of ligands (1 mM˜5 mM) into a protein solution (0.1 mM); integrated heat areas constitute a differential binding curve that was fitted with a standard single-site binding model (Origin 7.0, MicroCal iTC200).
(§2) Protein expression, purification and confirmation of purity were performed according to standard protocols. Acyl-CoA analogs were chemically synthesized as described previously (Huang, Y. T. et al. In vitro characterization of enzymes involved in the synthesis of nonproteinogenic residue (2S,3S)-beta-methylphenylalanine in glycopeptide antibiotic mannopeptimycin. Chembiochem 10, 2480-2487, doi:10.1002/cbic.200900351 (2009); Li, T. L., Spiteller, D. & Spencer, J. B. Identification of a pentaketide stilbene produced by a type III polyketide synthase from Pinus sylvestris and characterisation of free coenzyme A intermediates. Chembiochem 10, 896-901, doi:10.1002/cbic.200800840 (2009)). Single-wavelength anomalous dispersion (SAD) and molecular replacement (MR) methods were used to solve structures of native and complex Orf11*/Dbv8. Mutants were made by using QuickChange®. Biochemical analyses for wild type protein and mutants were performed using LC-MS. Oligomerization states of the proteins in solution were determined by gel filtration chromatography and analytical ultracentrifugation (AUC). Substrate-enzyme affinity was determined using isothermal titration calorimetry (ITC). Biological assays were performed according standard protocols.

E. faecalis (ATCC 51559) = test: Mouse infection treatment study, ED50 (rescue of 50% infected mice); assay type: in vivo
Procedure: The preliminary ED50 (potency) of the 2-decanoyl,6-octanoyl teicoplanin analog was determined as follows. 6-8 weeks BALB/c female mice were purchased from the National Laboratory Animal Breeding and Research Center, Taipei, Taiwan. Mice with average body weight of 25 to 30 g were subjected to infection via intraperitoneal (i.p.) injection with 1×10^10 cfu/mouse of E. faecalis (ATCC 51559) at day 0. For the treatment study, mice were randomly assigned into five groups at the start of the experiment and administered different amount of either vancomycin, teicoplanin, 2-C10-6-C8-Teicoplanin, or saline (as a blank control) by i.v. twice a day for two days (from day 1 to day 2, a total of 4 doses). The ED50 was determine by the concentration of compounds sufficient to rescue 50% infected mice.

ATCC 51559 = test: MIC by broth microdilution (NCCLS); assay type: cell-based, E. faecalis
Procedure: (§3) The MIC values were determined by the broth microdilution method, as recommended by the National Committee for Clinical Laboratory Standards (NCCLS). Briefly, overnight cultures of tested bacteria were suspended to a turbidity of 0.1 OD units (1˜5×10^8 CFU/ml). Microtiter plates containing serial dilutions of each antimicrobial agent (0, 1, 2, 4, 8, 16, 32, 64, and 128 μg/ml) were inoculated with each organism to yield the appropriate density (1˜5×10^5 CFU/ml) in a 200 μL final volume. The plates were incubated for 18˜22 h at 37° C.
(§4) MICs were determined as concentrations at which no growth was observed against the strain tested. Experiments were performed in double duplicate. ATCC 29302/ATCC 33186: a standard strain; ATCC 51299: a low-level vancomycin-resistant (VanB type); ATCC 51559: a multidrug-resistant strain (ampicillin, ciprofloxacin, gentamicin, rifampin, teicoplanin and vancomycin, VanA type VRE); ATCC 700221: a strain resistant to vancomycin, VanA type VRE. ATCC 700802 is a strain resistant to gentamicins and vancomycin.

ATCC 29302 = test: MIC by broth microdilution (NCCLS); assay type: cell-based
Procedure: as §3, §4

ATCC 700221 = test: MIC by broth microdilution (NCCLS); assay type: cell-based
Procedure: as §3, §4

ATCC 33186 = test: MIC by broth microdilution (NCCLS); assay type: cell-based
Procedure: as §3, §4

ATCC 700802 = test: MIC by broth microdilution (NCCLS); assay type: cell-based
Procedure: as §3, §4

ATCC 51299 = test: MIC by broth microdilution (NCCLS); assay type: cell-based
Procedure: as §3, §4

Orf11* = molecular target: T1, Orf11* (Actinoplanes teichomyceticus, UniProt Q70AY4); test: isothermal titration calorimetry (ITC) of acyl-CoA ligands versus Orf11* (FIG. 9); assay type: binding
T1 sequence (Q70AY4 1-323): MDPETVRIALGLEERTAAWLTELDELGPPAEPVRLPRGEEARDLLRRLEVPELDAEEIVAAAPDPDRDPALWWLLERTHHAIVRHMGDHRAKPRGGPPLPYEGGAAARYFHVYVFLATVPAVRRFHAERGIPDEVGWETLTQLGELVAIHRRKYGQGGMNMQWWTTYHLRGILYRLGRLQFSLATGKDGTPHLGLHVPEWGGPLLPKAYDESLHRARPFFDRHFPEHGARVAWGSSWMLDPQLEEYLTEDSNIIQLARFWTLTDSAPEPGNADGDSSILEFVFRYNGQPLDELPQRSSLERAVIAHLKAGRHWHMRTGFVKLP
Procedure: as §1
The orf11* and dbv8 genes were amplified and subcloned into the expression vector pET28a(+). The clones were transformed into E. coli BL21(DE3) for protein over-expression. A typical procedure is described as follows: One liter of LB medium containing 50 mg/L kanamycin was inoculated with 10 mL of an overnight culture grown in LB medium (containing 50 mg/L kanamycin), induced with 1 mL 1.0M IPTG (to give 1.0 mM; exact concentrations varied between proteins) at an OD600 of 0.7, and grown for a further 8 hours at 16° C. Cells were harvested by centrifugation at 6000 rpm for 20 min at 4° C., resuspended in 30 mL binding buffer (50 mM Tris at pH 8.0, 500 mM NaCl, 10 mM imidazole, 10% glycerol) and disrupted by microfluidizer. The cell lysate was centrifuged at 18000 rpm for 30 minutes to remove cell debris. The supernatant was applied to a Ni^2+-NTA agarose resin column (2 mL, Novagen) pre-equilibrated with binding buffer. The column was washed sequentially with 20 mL of binding buffer and 10 mL washing buffer (50 mM Tris at pH 8.0, 500 mM NaCl, 50 mM imidazole, 10% glycerol). The bound protein then was eluted with 10 mL of elution buffer (50 mM Tris at pH 8.0, 500 mM NaCl, 250 mM imidazole, 10% glycerol). Gel filtration was performed using an Äkta FPLC system equipped with an S-200 Superdex column (Amersham Bioscience) under isocratic conditions (50 mM Tris at pH 8.0, 500 mM NaCl). The buffer was exchanged using Millipore centrifugal filters and HEPES buffer (50 mM, pH 8.0). Protein purity was determined by SDS-PAGE and Western blotting, and electrospray mass spectrometry (ESI-MS). Protein concentrations were estimated using the Bradford assay.
as §2
The GNAT domain in Orf11*/Dbv8 differs from the canonical GNAT fold as it lacks the first β strand, and the C-terminus extends with four additional helices (α10-α13). β-Strands β3 and β4 splay apart at C-termini, where Pro198 replaces a typical β-bulge. In a decanoyl-CoA-complexed binary structure (FIG. 2c), the decanoyl-CoA bends in an ‘S’ shape edging in the splayed fingers β3 and β4 (FIG. 8). […]

[1] = ITC, injections of 2 μl of ligand (1 mM˜5 mM) into protein solution (0.1 mM), single-site binding model (Origin 7.0, MicroCal iTC200), Orf11* expressed from pET28a(+) in E. coli BL21(DE3), no mutation stated, read-out: dissociation constant (Kd)
[2] = standard strain, 18~22 h at 37° C.

For `CC(C)(COP(=O)(O)OP(=O)(O)OC[C@H]1O[C@@H](n2cnc3c(N)ncnc32)[C@H](O)[C@@H]1OP(=O)(O)O)[C@@H](O)C(=O)NCCC(=O)NCCS` [CoA 5, coenzyme A], the “binding to the enzyme (ITC)” value (Orf11*/Dbv8) was “barely binds”.
Compound `CN[C@H](CC(C)C)C(=O)N[C@H]1C(=O)N[C@@H](CC(N)=O)C(=O)N[C@H]2C(=O)N[C@H]3C(=O)N[C@H](C(=O)N[C@H](C(=O)O)c4cc(O)cc(O)c4-c4cc3ccc4O)[C@H](O)c3ccc(c(Cl)c3)Oc3cc2cc(c3O[C@@H]2O[C@H](CO)[C@@H](O)[C@H](O)[C@H]2O[C@H]2C[C@](C)(N)[C@H](O)[C@H](C)O2)Oc2ccc(cc2Cl)[C@H]1O` [Vancomycin, vancomycin] has an ED50 (E. faecalis (ATCC 51559); Enterococcus faecalis, ATCC51559, 48 h, read-out: ED50 against ATCC 51559) greater than 128 mg/kg, an MIC (ATCC 51559; Enterococcus, ATCC 51559 / VRE, 22 h, read-out: MIC ATCC 51559) of 1020 µg/mL (≈ 707 µM) and an MIC (ATCC 29302; 22 h, read-out: MIC ATCC 29302) of 1 µg/mL (≈ 0.69 µM). It also gave an MIC (ATCC 700221; Enterococcus, ATCC 700221 / VRE, 22 h, read-out: MIC ATCC 700221) greater than 128 µg/mL, an MIC (ATCC 33186; 22 h, read-out: MIC ATCC 33186) of 4 µg/mL (≈ 2.76 µM) and an MIC (ATCC 700802; 22 h, read-out: MIC ATCC 700802) of 64 µg/mL (≈ 44.2 µM). The MIC (ATCC 51299; 22 h, read-out: MIC ATCC 51299) was greater than 64 µg/mL.
With `CC(C)(COP(=O)(O)OP(=O)(O)OC[C@H]1O[C@@H](n2cnc3c(N)ncnc32)[C@H](O)[C@@H]1OP(=O)(O)O)[C@@H](O)C(=O)NCCC(=O)NCCSC(=O)c1ccccc1` [benzoyl-CoA] the “binding to the enzyme (ITC)” value (Orf11*/Dbv8) was “does not bind”.
With `CCCC(=O)SCCNC(=O)CCNC(=O)[C@H](O)C(C)(C)COP(=O)(O)OP(=O)(O)OC[C@H]1O[C@@H](n2cnc3c(N)ncnc32)[C@H](O)[C@@H]1OP(=O)(O)O` [butyryl-CoA] the Kd (Orf11*) was 111 ± 23 µM.
For `CCCCCCCCCC(=O)SCCNC(=O)CCNC(=O)[C@H](O)C(C)(C)COP(=O)(O)OP(=O)(O)OC[C@H]1O[C@@H](n2cnc3c(N)ncnc32)[C@H](O)[C@@H]1OP(=O)(O)O` [decanoyl-CoA], the Kd (Orf11*; [1]) was 1 ± 0.1 µM.
`CCCCCC(=O)SCCNC(=O)CCNC(=O)[C@H](O)C(C)(C)COP(=O)(O)OP(=O)(O)OC[C@H]1O[C@@H](n2cnc3c(N)ncnc32)[C@H](O)[C@@H]1OP(=O)(O)O` [hexanoyl-CoA] was tested, and the Kd (Orf11*; [1]) was 85.6 ± 9 µM.
Compound `CCCCCCCCCCCC(=O)SCCNC(=O)CCNC(=O)[C@H](O)C(C)(C)COP(=O)(O)OP(=O)(O)OC[C@H]1O[C@@H](n2cnc3c(N)ncnc32)[C@H](O)[C@@H]1OP(=O)(O)O` [lauroyl-CoA] has a Kd (Orf11*; [1]) of 4.1 ± 0.8 µM.
With `CC(C)(COP(=O)(O)OP(=O)(O)OC[C@H]1O[C@@H](n2cnc3c(N)ncnc32)[C@H](O)[C@@H]1OP(=O)(O)O)[C@@H](O)C(=O)NCCC(=O)NCCSC(=O)CC(=O)O` [malonyl-CoA] the “binding to the enzyme (ITC)” value (Orf11*/Dbv8) was “does not bind”.
With `CC(C(=O)O)C(=O)SCCNC(=O)CCNC(=O)[C@H](O)C(C)(C)COP(=O)(O)OP(=O)(O)OC[C@H]1O[C@@H](n2cnc3c(N)ncnc32)[C@H](O)[C@@H]1OP(=O)(O)O` (stereo partly drawn) [methylmalonyl-CoA] the “binding to the enzyme (ITC)” value (Orf11*/Dbv8) was “does not bind”.
`CCCCCCCCCCCCCC(=O)SCCNC(=O)CCNC(=O)[C@H](O)C(C)(C)COP(=O)(O)OP(=O)(O)OC[C@H]1O[C@@H](n2cnc3c(N)ncnc32)[C@H](O)[C@@H]1OP(=O)(O)O` [myristoyl-CoA] gave a Kd (Orf11*) of 5.9 ± 1.2 µM.
`CCCCCCCC(=O)SCCNC(=O)CCNC(=O)[C@H](O)C(C)(C)COP(=O)(O)OP(=O)(O)OC[C@H]1O[C@@H](n2cnc3c(N)ncnc32)[C@H](O)[C@@H]1OP(=O)(O)O` [octanoyl-CoA] showed a Kd (Orf11*; [1]) of 1 ± 0.1 µM.
In the case of `CCCCCCCCCCCCCCCC(=O)SCCNC(=O)CCNC(=O)[C@H](O)C(C)(C)COP(=O)(O)OP(=O)(O)OC[C@H]1O[C@@H](n2cnc3c(N)ncnc32)[C@H](O)[C@@H]1OP(=O)(O)O` [palmitoyl-CoA], the Kd (Orf11*; [1]) is reported as 0.4 ± 0.08 µM.
For `CCCCCCCCCCCCCCCCCC(=O)SCCNC(=O)CCNC(=O)[C@H](O)C(C)(C)COP(=O)(O)OP(=O)(O)OC[C@H]1O[C@@H](n2cnc3c(N)ncnc32)[C@H](O)[C@@H]1OP(=O)(O)O` [stearoyl-CoA], the Kd (Orf11*; [1]) was 4.3 ± 0.8 µM.
“Tei pseudoaglycone [Tei pseudoaglycone 3]” was tested, and the “binding to the enzyme (ITC)” value (Orf11*/Dbv8) was “barely binds”.
Teicoplanin was tested, and the “ED50 against ATCC 51559” value (E. faecalis (ATCC 51559); BALB/c female mice infected i.p. with 1×10^10 cfu/mouse, i.v. twice a day for two days (4 doses), amount rescuing 50% infected mice, preliminary) was greater than 128 mg/kg, the “MIC ATCC 51559” value (ATCC 51559; multidrug-resistant strain, VanA type VRE, 18~22 h at 37° C.) was 256 µg/mL and the “MIC ATCC 29302” value (ATCC 29302; [2]) was 0.25 µg/mL. For the same compound, the “MIC ATCC 700221” value (ATCC 700221; resistant to vancomycin, VanA type VRE, 18~22 h at 37° C.) was greater than 128 µg/mL, the “MIC ATCC 33186” value (ATCC 33186; [2]) was 0.25 µg/mL and the “MIC ATCC 700802” value (ATCC 700802; resistant to gentamicins and vancomycin, 18~22 h at 37° C.) was 0.5 µg/mL. For the same compound, the “MIC ATCC 51299” value (ATCC 51299; low-level vancomycin-resistant (VanB type), 18~22 h at 37° C.) was 0.5 µg/mL.
